Data on 27 molecules can be found in patent publication US20240124422A1, “MUTANT PI3K-ALPHA INHIBITORS AND THEIR USE AS PHARMACEUTICALS” (Prelude Therapeutics Incorporated, priority 2022, published 2024).

SMILES strings stand for the structures.

One assay deals with phosphorylation of AKT on Ser473 as a readout of the PI3K pathway in T-47D (heterozygous PIK3CA H1047R) cells. The assay can be described thus: PI3K pathway activation assay, pAKT Ser473 HTRF, T-47D cells. It is filed as cell-based. The settings on record: Homo sapiens, T47D, 2 h, two hours of treatment. On the procedure:
The inhibitory activity of compounds was evaluated by measuring phosphorylation of AKT on Ser473 as a readout of the PI3K pathway using HTRF (CisBio catalog number: 64AKSPE). These studies were conducted in the T-47D (heterozygous PIK3CA H1047R) and SKBR3 (PIK3CA WT) cell lines. Cells were maintained in a 37° C. incubator at 5% CO2 in the following media: T-47D: RPMI 1640, ATCC© Modification (Gibco, A10491-01) supplemented with 10% v/v FBS (Gibco, 26140-079), 1% penicillin streptomycin (Gibco, 15140-122), and 7.4 ug/mL insulin (MilliporeSigma, I9278); SKBR3: McCoy's 5a (Modified) Medium (Gibco, 16600-082) supplemented with 10% v/v FBS (Gibco, 26140-079). Cells were seeded in 384-well plates at a density of 4,000 cells/well. Compounds dissolved in DMSO were added using a digital dispense (D300E, Tecan) 10-point serial dilution. After two hours of treatment, cells were lysed for thirty minutes and then incubated with detection reagents per HTRF kit material and manufacturer's instructions. Fluorescence signal was measured with a multimode plate reader (Envision 2105, Perkin Elmer). Fluorescent signal was normalized to background and DMSO controls to obtain percent inhibition/activity for each compound.
A general note: TR-FRET usually uses a lanthanide donor and a delayed reading to cut background.
For `COc1cccc(NC(C)c2cc(C)cc3c(=O)n(C)c(N4Cc5ccccc5C4)nc23)c1C(=O)O` (stereo not drawn) [Example 29, 2-((1-(2-(isoindolin-2-yl)-3,6-dimethyl-4-oxo-3,4-dihydroquinazolin-8-yl)ethyl)amino)-6-methoxybenzoic acid], the IC50 was in the range of 500 to 10000 nM. In the case of `Cc1cc(C(C)Nc2ccccc2C(=O)O)c2nc(N3CC4CCC4C3)n(C)c(=O)c2c1` (stereo not drawn) [Example 112, 2-[1-[2-(3-azabicyclo[3.2.0]heptan-3-yl)-3,6-dimethyl-4-oxoquinazolin-8-yl]ethylamino]benzoic acid], the IC50 was under 500 nM. For the molecule `C=CC(=O)Nc1c(C)cc(C(C)Nc2ccccc2C(=O)O)c2nc(N3CC4CC4C3)n(C)c(=O)c12` (stereo not drawn) [Example 38, 2-((1-(5-acrylamido-2-(3-azabicyclo[3.1.0]hexan-3-yl)-3,6-dimethyl-4-oxo-3,4-dihydroquinazolin-8-yl)ethyl)amino)benzoic acid], the IC50 was 500 to 10000 nM. Take `Cc1cc(C(C)Nc2ccccc2C(=O)O)c2nc(N3Cc4ccccc4C3)n(-c3cccnc3)c(=O)c2c1` (stereo not drawn) [Example 18, 2-((1-(2-(isoindolin-2-yl)-6-methyl-4-oxo-3-(pyridin-3-yl)-3,4-dihydroquinazolin-8-yl)ethyl)amino)benzoic acid]: the concentration for half-maximal inhibition (IC50) is 500 to 10000 nM. `Cc1cc(C(C)Nc2ccccc2C(=O)O)c2nc(N3CC4CC3C4)n(C)c(=O)c2c1` (stereo not drawn) [Example 117, 2-((1-(2-(2-Azabicyclo[2.1.1]hexan-2-yl)-3,6-dimethyl-4-oxo-3,4-dihydroquinazolin-8-yl)ethyl)amino)benzoic acid] yielded an IC50 of 500 to 10000 nM. In turn, `Cc1cc(C(C)Nc2c(F)cccc2C(=O)O)c2nc(N3Cc4ccccc4C3)n(C)c(=O)c2c1` (stereo not drawn) [Example 45, 3-fluoro-2-((1-(2-(isoindolin-2-yl)-3,6-dimethyl-4-oxo-3,4-dihydroquinazolin-8-yl)ethyl)amino)benzoic acid] had an IC50 of 500 to 10000 nM. In turn, `Cc1cc(C(C)Nc2ccccc2C(=O)O)c2nc(N)n(C)c(=O)c2c1` (stereo not drawn) [Example 26, 2-((1-(2-amino-3,6-dimethyl-4-oxo-3,4-dihydroquinazolin-8-yl)ethyl)amino) benzoic acid] yielded an IC50 of 500 to 10000 nM. `Cc1cc(C(C)Nc2ccccc2C(=O)O)c2nc(N3CC4CC3CN4C(=O)OC(C)(C)C)n(C)c(=O)c2c1` (stereo not drawn) [Example 65, 2-((1-(2-(5-(tert-Butoxycarbonyl)-2,5-diazabicyclo[2.2.1]heptan-2-yl)-3,6-dimethyl-4-oxo-3,4-dihydroquinazolin-8-yl)ethyl)amino)benzoic acid] displayed an IC50 of 500 to 10000 nM. Still for that read-out and setting: in the case of `Cc1cc(C(C)Nc2cc(Cl)nnc2C(=O)O)c2nc(N3CC4CC4C3)n(C)c(=O)c2c1` (stereo not drawn) [Example 126, 4-((1-(2-(3-Azabicyclo[3.1.0]hexan-3-yl)-3,6-dimethyl-4-oxo-3,4-dihydroquinazolin-8-yl)ethyl)amino)-6-chloropyridazine-3-carboxylic acid] it was 500 to 10000 nM.

Take `Cc1cc(C(C)Nc2ccc(C(F)(F)F)cc2C(=O)O)c2nc(N3Cc4ccccc4C3)n(C)c(=O)c2c1` (stereo not drawn) [Example 30, 2-((1-(2-(isoindolin-2-yl)-3,6-dimethyl-4-oxo-3,4-dihydroquinazolin-8-yl)ethyl)amino)-5-(trifluoromethyl)benzoic acid]: the IC50 was 500 to 10000 nM. `CC(Nc1ccccc1C(=O)O)c1cc(C(F)(F)F)cc2c(=O)n(C)c(N3Cc4ccccc4C3)nc12` (stereo not drawn) [Example 15, 2-((1-(2-(isoindolin-2-yl)-3-methyl-4-oxo-6-(trifluoromethyl)-3,4-dihydroquinazolin-8-yl)ethyl)amino)benzoic acid] had an IC50 of under 500 nM.

`Cc1cc(C(C)Nc2ccccc2C(=O)O)c2nc(N3CCc4ccccc4C3)n(C)c(=O)c2c1` (stereo not drawn) [Example 51, 2-[1-[2-(3,4-dihydro-1H-isoquinolin-2-yl)-3,6-dimethyl-4-oxoquinazolin-8-yl]ethylamino]benzoic acid] came in with an IC50 of 500 to 10000 nM. Consider `Cc1cc(C(C)Nc2cc(F)ccc2C(=O)O)c2nc(N3Cc4ccccc4C3)n(C)c(=O)c2c1` (stereo not drawn) [Example 32, 4-fluoro-2-((1-(2-(isoindolin-2-yl)-3,6-dimethyl-4-oxo-3,4-dihydroquinazolin-8-yl)ethyl)amino)benzoic acid], for which the IC50 was under 500 nM. The molecule `Cc1cc(C(C)Nc2ccccc2C(O)C(F)(F)F)c2nc(N3Cc4ccccc4C3)n(C)c(=O)c2c1` (stereo not drawn) [Example 12, 2-(isoindolin-2-yl)-3,6-dimethyl-8-(1-((2-(2,2,2-trifluoro-1-hydroxyethyl)phenyl)amino)ethyl)quinazolin-4(3H)-one] showed an IC50 of 500 to 10000 nM. As to `Cc1cc(C(C)Nc2ccccc2C(=O)O)c2nc(N3CC4(CCC4(F)F)C3)n(C)c(=O)c2c1` (stereo not drawn) [Example 106, 2-[1-[2-(7,7-difluoro-2-azaspiro[3.3]heptan-2-yl)-3,6-dimethyl-4-oxoquinazolin-8-yl]ethylamino]benzoic acid], the IC50 is under 500 nM.

Regarding `Cc1cc(C(C)Nc2ccccc2C(=O)O)c2nc(N3CCC(C)(C)CC3)n(C)c(=O)c2c1` (stereo not drawn) [Example 17, 2-((1-(2-(4,4-dimethylpiperidin-1-yl)-3,6-dimethyl-4-oxo-3,4-dihydroquinazolin-8-yl)ethyl)amino)benzoic acid], the IC50 was under 500 nM. In turn, `Cc1cc(C(C)Nc2ccccc2C(=O)O)c2nc(N3CCS(=O)(=O)CC3)n(C)c(=O)c2c1` (stereo not drawn) [Example 56, 2-((1-(2-(1,1-dioxidothiomorpholino)-3,6-dimethyl-4-oxo-3,4-dihydroquinazolin-8-yl)ethyl)amino)benzoic acid] registered an IC50 of 500 to 10000 nM. Same read-out and setting: in the case of `CCc1cc(C(C)Nc2ccccc2C(=O)O)c2nc(N3CC4CC4C3)n(C)c(=O)c2c1` (stereo not drawn) [Example 78, 2-((1-(2-(3-Azabicyclo[3.1.0]hexan-3-yl)-6-ethyl-3-methyl-4-oxo-3,4-dihydroquinazolin-8-yl)ethyl)amino)benzoic acid] it was 500 to 10000 nM. On to `Cc1cc(C(C)Nc2ccccc2C(=O)O)c2nc(N3C[C@@H]4[C@H](C3)[C@H]4C(=O)N(C)C(C)C)n(C)c(=O)c2c1` (stereo partly drawn) [Example 81, 2-((1-(2-((1R,5S,6R)-6-(Isopropyl(methyl)carbamoyl)-3-azabicyclo[3.1.0]hexan-3-yl)-3,6-dimethyl-4-oxo-3,4-dihydroquinazolin-8-yl)ethyl)amino)benzoic acid], for which the IC50 is under 500 nM. Same read-out and setting: in the case of `COCC(=O)N1CCN(c2nc3c(C(C)Nc4ccccc4C(=O)O)cc(C)cc3c(=O)n2C)CC1` (stereo not drawn) [Example 93, 2-((1-(2-(4-(2-Methoxyacetyl)piperazin-1-yl)-3,6-dimethyl-4-oxo-3,4-dihydro-quinazolin-8-yl)ethyl)amino)benzoic acid] it was 500 to 10000 nM; in that of `CSc1ccc(NC(C)c2cc(C)cc3c(=O)n(C)c(N4CC5CC5C4)nc23)c(C(=O)O)n1` (stereo not drawn) [Example 124, 3-[1-[2-(3-Azabicyclo[3.1.0]hexan-3-yl)-3,6-dimethyl-4-oxoquinazolin-8-yl]ethylamino]-6-methylsulfanylpyridine-2-carboxylic acid], under 500 nM; in that of `C=CC(=O)N1CCCC1c1nc2c(C(C)Nc3ccccc3C(=O)O)cc(C)cc2c(=O)n1C` (stereo not drawn) [Example 71, 2-[1-[3,6-Dimethyl-4-oxo-2-(1-prop-2-enoylpyrrolidin-2-yl)quinazolin-8-yl]ethylamino]benzoic acid], 500 to 10000 nM.

Turning to `Cc1cc(C(C)Nc2ccccc2C(=O)O)c2nc(N3CC4CC4C3)n(C)c(=O)c2c1C#N` (stereo not drawn) [Example 14, 2-((1-(2-(3-azabicyclo[3.1.0]hexan-3-yl)-5-cyano-3,6-dimethyl-4-oxo-3,4-dihydroquinazolin-8-yl)ethyl)amino)benzoic acid], the IC50 was 500 to 10000 nM.

With `Cc1cc(C(C)Nc2ccc(C(F)(F)F)nc2C(=O)O)c2nc(N3CC4CC4C3)n(C)c(=O)c2c1` (stereo not drawn) [Example 80, 3-((1-(2-(3-azabicyclo[3.1.0]hexan-3-yl)-3,6-dimethyl-4-oxo-3,4-dihydro-quinazolin-8-yl)ethyl)amino)-6-(trifluoromethyl)picolinic acid], the IC50 lay within 500 to 10000 nM.

The same assay, now with this note: two hours of treatment, read-out: T47D pAKT IC50.
On to `Cc1cc(C(C)Nc2ccccc2C(=O)O)c2nc(N3C[C@@H]4[C@H](C3)[C@H]4C(=O)N(C)CC(F)F)n(C)c(=O)c2c1` (stereo partly drawn) [Example 84, 2-((1-(2-((1R,5S,6R)-6-((2,2-Difluoroethyl)(methyl)carbamoyl)-3-azabicyclo[3.1.0]hexan-3-yl)-3,6-dimethyl-4-oxo-3,4-dihydroquinazolin-8-yl)ethyl)amino)benzoic acid], for which the IC50 is under 500 nM. Regarding `CNC(=O)C1[C@H]2CN(c3nc4c(C(C)Nc5ccccc5C(=O)O)cc(C)cc4c(=O)n3C)C[C@@H]12` (stereo partly drawn) [Example 89, 2-((1-(3,6-Dimethyl-2-((1R,5S,6R)-6-(methylcarbamoyl)-3-azabicyclo[3.1.0]hexan-3-yl)-4-oxo-3,4-dihydroquinazolin-8-yl)ethyl)amino)benzoic acid], the IC50 is 500 to 10000 nM.

As to `CON(C)C(=O)C1[C@H]2CN(c3nc4c(C(C)Nc5ccccc5C(=O)O)cc(C)cc4c(=O)n3C)C[C@@H]12` (stereo partly drawn) [Example 83, 2-((1-(2-((1R,5S,6R)-6-(Methoxy(methyl)carbamoyl)-3-azabicyclo[3.1.0]hexan-3-yl)-3,6-dimethyl-4-oxo-3,4-dihydroquinazolin-8-yl)ethyl)amino)benzoic acid], the IC50 was under 500 nM.

Usually IC50 stands for the midpoint of a concentration-inhibition curve.
